Patent publication US9079913B2, “Spiro-oxindole MDM2 antagonists” (The Regents of the University of Michigan, priority 2009, dated 2015)
Read-outs that look alike come from different tables or passages of the source. Values belong to the molecule of their own block, whether it stands above or below them.

What was measured:
[1] = molecular target: recombinant human His-tagged MDM2 protein (residues 1-118) (Homo sapiens (Human), UniProt Q00987); test: Fluorescence-polarization MDM2 binding assay;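 note: fluorescence polarization read after three hours of incubation in potassium phosphate buffer containing bovine gamma globulin and Triton X-100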
[2] = tested on: cancer cell lines with wild-type p53 / mutated or deleted p53 (ATCC); test: Cell growth assay (WST-8), other cancer cell lines; assay type: cell-based; conditions: for IC50: Homo sapiens
[3] = In vitro microsomal stability, rat; assay type: in vitro ADME; conditions: for microsomal stability (in words): rat liver microsomes
[4] = tested on: Isogenic HCT-116 colon cancer cell lines; test: cells; assay type: cell-based; conditions: Homo sapiens;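 note: cells grown in 96-well plates in McCoy's 5A medium with 10% FBS, exposed to compound for 4 days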
Experimental: Cells were seeded in 96-well flat bottom cell culture plates at a density of 2−3×10^3 cells/well with compounds and incubated for 4 days.

[5] = In vitro microsomal stability, human; assay type: in vitro ADME
[6] = Table 19A, FP binding assay, read-out: MDM2 IC50
[7] = PC-3, Table 19A, PC-3 cells, deleted p53, cell growth, read-out: PC-3 (deleted p53) IC50
[8] = SJSA-1, Table 19A, SJSA-1 cells, p53 wild-type, cell growth, read-out: SJSA-1 (p53 wild-type) IC50

Sequence of recombinant human His-tagged MDM2 protein (residues 1-118) (Q00987 1-118): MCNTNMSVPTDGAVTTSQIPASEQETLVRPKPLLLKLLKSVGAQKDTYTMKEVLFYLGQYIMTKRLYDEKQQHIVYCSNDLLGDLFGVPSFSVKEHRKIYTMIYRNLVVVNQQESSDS

IC50 [1, 6]: < 3000 nM | IC50 [2, 8]: < 5000 nM
SMILES: CC(C)(C)C[C@H]1N[C@@H](C(=O)NC2CCN(S(=O)(=O)C(F)(F)F)CC2)[C@H](c2cccc(Cl)c2F)[C@@]12C(=O)Nc1cc(Cl)ccc12 [MI-780]

% of compound remaining when incubated in rat liver microsomes ([3]; Table 17, 0 min): 100% | % of compound remaining when incubated in rat liver microsomes ([3]; Table 17, 4 min): 96.8% | % of compound remaining when incubated in rat liver microsomes ([3]; Table 17, 6 min): 97.3% | % of compound remaining when incubated in rat liver microsomes ([3]; Table 17, 10 min): 85.6% | % of compound remaining when incubated in rat liver microsomes ([3]; Table 17, 15 min): 72.1% | % of compound remaining when incubated in rat liver microsomes ([3]; Table 17, 30 min): 61.5%
SMILES: CC(C)(C)C[C@H]1N[C@@H](C(=O)NCCN2CCCC2)[C@H](c2cccc(Cl)c2F)[C@@]12C(=O)Nc1cc(Cl)c(F)cc12 [MI-763]
microsomal stability (in words) [3]: improved microsomal stability over MI-219

Second part, the molecule before the results:

SMILES: CC(C)(C)C[C@H]1N[C@@H](C(=O)N[C@H]2C[C@@](C)(O)C2)[C@H](c2cccc(Cl)c2)[C@@]12C(=O)Nc1cc(F)c(F)cc12 [C035]
IC50 [1, 6]: < 3000 nM | IC50 [2, 7]: > 10000 nM

SMILES: CC(C)(C)C[C@H]1N[C@@H](C(=O)NC2CN(CC(F)F)C2)[C@H](c2cccc(Cl)c2F)[C@@]12C(=O)Nc1cc(Cl)ccc12 [MI-519-72]
IC50 ([1]; Table 19D, read-out: MDM2 Binding Affinities IC50): < 1000 nM

SMILES: CC(C)(C)C[C@H]1N[C@@H](C(=O)NCCCN2CCCC2)[C@H](c2cccc(Cl)c2F)[C@@]12C(=O)Nc1cc(Cl)ccc12 [MI-519-43]
IC50 ([4]; HCT-116, read-out: HCT-116 (p53-/-) IC50, Table 19A, HCT-116 p53-/-, cell growth): 4100 ± 500 nM | IC50 ([4]; HCT-116, read-out: HCT-116 (p53 wild-type) IC50, Table 19A, HCT-116 p53 wild-type, cell growth): 900 nM | IC50 ([2]; LNCaP, Table 19A, LNCAP cells, p53 wild-type, cell growth, read-out: LNCAP (p53 wild-type) IC50): 1000 nM | IC50 [2, 7]: 3400 nM | IC50 [2, 8]: 900 ± 100 nM | % of compound remaining when incubated in rat liver microsomes ([3]; Table 17, 0 min): 100% | % of compound remaining when incubated in rat liver microsomes ([3]; Table 17, 4 min): 92.3% | % of compound remaining when incubated in rat liver microsomes ([3]; Table 17, 6 min): 86.1% | % of compound remaining when incubated in rat liver microsomes ([3]; Table 17, 10 min): 70.6% | % of compound remaining when incubated in rat liver microsomes ([3]; Table 17, 15 min): 69.9% | % of compound remaining when incubated in rat liver microsomes ([3]; Table 17, 30 min): 62.5% | microsomal stability (in words) [3]: improved microsomal stability over MI-219

SMILES: CC(C)(C)C[C@H]1N[C@@H](C(=O)NC2CC(O)C2)[C@H](c2cccc(Cl)c2F)[C@@]12C(=O)Nc1cc(Cl)ccc12 (stereo partly drawn) [MI-519-60]
IC50 ([4]; HCT-116, read-out: HCT-116 (p53 wild-type) IC50): < 3000 nM | cell growth inhibition (in words) [2]: more potent than its epimer MI-519-63 | IC50 ([2]; LNCaP, read-out: LNCAP (p53 wild-type) IC50): < 3000 nM | IC50 ([2]; SJSA-1, read-out: SJSA-1 (p53 wild-type) IC50): < 3000 nM | % of compound remaining when incubated in rat liver microsomes with NADPH ([3]; 0 min): 100% | % of compound remaining when incubated in rat liver microsomes with NADPH ([3]; 5 min): 79.93% | % of compound remaining when incubated in rat liver microsomes with NADPH ([3]; 10 min): 63.72% | % of compound remaining when incubated in rat liver microsomes with NADPH ([3]; 15 min): 51.52% | % of compound remaining when incubated in rat liver microsomes with NADPH ([3]; 30 min): 40.6% | % of compound remaining when incubated in rat liver microsomes with NADPH ([3]; 45 min): 35.16% | % of compound remaining when incubated in rat liver microsomes with NADPH ([3]; 60 min): 29.15% | % of compound remaining when incubated in human liver microsomes with NADPH ([5]; 0 min): 100% | % of compound remaining when incubated in human liver microsomes with NADPH ([5]; 5 min): 83.26% | % of compound remaining when incubated in human liver microsomes with NADPH ([5]; 10 min): 68.14% | % of compound remaining when incubated in human liver microsomes with NADPH ([5]; 15 min): 51.54% | % of compound remaining when incubated in human liver microsomes with NADPH ([5]; 30 min): 49.28% | % of compound remaining when incubated in human liver microsomes with NADPH ([5]; 45 min): 40.97% | % of compound remaining when incubated in human liver microsomes with NADPH ([5]; 60 min): 37.55%
